Test results from patent publication US10577368B2 (The United States of America, as represented by the …, priority 2013, dated 2020).
Read-outs that look alike come from different tables or passages of the source.

Assays:
[1] = test system: CYP1A2, CYP2C9, CYP2C19, CYP2D6, CYP3A4; test: Inhibition of 5 CYP isozymes; type: in vitro ADME; details: human
[2] = Stability in simulated fluids (gastric, intestinal); type: in vitro ADME
Excerpt: (§1) In vitro stability parameters for selected compounds are set forth in Table 6, in accordance with an embodiment of the invention.

[3] = biological target: mA2AAR (Mus musculus (Mouse), UniProt Q60613); test: Competition binding at mA2AAR, HEK293 cell membranes; details: for inhibition at 10 µM: read-out: A2AAR % inhibition, mouse data (m) (converted)
[4] = test system: muscarinic, adrenergic, dopamine, GABA, histamine, opiate, serotonin receptors and transporters; test: Off-target binding panel (receptors and transporters of Table 5); details: for Interactions at other receptors of the off-target panel: 10 μM
Excerpt: (§2) The results are set forth below.

[5] = biological target: human DAT (Homo sapiens (Human), UniProt Q01959); test: Radioligand ([3H]WIN35428) binding at the dopamine transporter; details: for Ki: off-target binding
[6] = biological target: Alpha 2C adrenergic receptor (Homo sapiens (Human), UniProt P18825); test: Off-target binding, α2C; details: read-out: Ki at α2C
Excerpt: as §2

[7] = Stability in liver microsomes, human; type: in vitro ADME; details: for half-life: liver microsomes, read-out: Stability in liver microsomes (t1/2, min): Human
[8] = biological target: SERT (Homo sapiens (Human), UniProt P31645); test: Off-target binding, SERT
Excerpt: as §2

[9] = Stability in liver microsomes, mouse; type: in vitro ADME; details: for half-life: liver microsomes, read-out: Stability in liver microsomes (t1/2, min): Mouse
[10] = biological target: hA2AAR (Homo sapiens (Human), UniProt P29274); test: Radioligand binding at hA2AAR, HEK293 cell membranes, [3H]CGS21680; details: read-out: hA2AAR % inhibition
[11] = biological target: Alpha 2A adrenergic receptor (Homo sapiens (Human), UniProt P08913); test: Off-target binding, α2A
Excerpt: as §2

[12] = biological target: hA1AR (Homo sapiens (Human), UniProt P30542); test: Radioligand binding at hA1AR, CHO cell membranes, [3H]R-PIA; details: for inhibition at 10 µM: read-out: hA1AR % inhibition
[13] = test system: chronic constriction injury model of neuropathic pain; test: CCI model of neuropathic pain, reversal of mechano-allodynia; type: in vivo, mice; details: for Max. effect Emax (% ± SEM) / Time of peak protection / Effect at 3 h (% ± SEM): 3 μmol/kg p.o., mice; for Max. effect Emax (% ± SEM) / Time of peak protection: ipsilateral hind paw; for Efficacy in reversing NP in vivo (of full reversal at peak effect): CCI model
[14] = Stability in liver microsomes, rat; type: in vitro ADME; details: for half-life: liver microsomes, read-out: Stability in liver microsomes (t1/2, min): Rat
[15] = biological target: α1D adrenergic receptor (Homo sapiens (Human), UniProt P25100); test: Off-target binding, α1D
Excerpt: as §2

[16] = biological target: mA3AR (Mus musculus (Mouse), UniProt Q61618); test: Competition binding at mA3AR, HEK293 cell membranes
[17] = biological target: Alpha 1B adrenergic receptor (Homo sapiens (Human), UniProt P35368); test: Off-target binding, α1B
Excerpt: as §2

[18] = Bioavailability / plasma pharmacokinetics; type: in vivo; details: rat, male SD rats
Description: Male SD rats were dosed intravenously at 1 mg/kg and orally at 1, 3, and 10 mg/kg. Plasma concentration as a function of time is depicted in FIG. 15.

[19] = biological target: PBR (Homo sapiens (Human), UniProt P30536); test: Off-target binding, PBR; details: at 10 μM
Excerpt: as §2

[20] = biological target: r Sigma 2 (Rattus norvegicus (Rat), UniProt Q5U3Y7); test: Off-target binding, Sigma-2
Excerpt: as §2

[21] = test system: C57BL/6J mice; details: mouse, in vivo, 50 mg/kg
[22] = biological target: r Sigma 1 (Rattus norvegicus (Rat), UniProt Q9R0C9); test: Off-target binding, Sigma-1
Excerpt: as §2

[23] = biological target: mA1AR (Mus musculus (Mouse), UniProt Q60612); test: Competition binding at mA1AR, HEK293 cell membranes
[24] = test system: C57BL/6J mice; test: Acute liver toxicity, oral gavage; details: 50 mg/kg oral gavage, 24 h
[25] = test system: chronic constriction injury (CCI) model, mechano-allodynia; test: Morphine analgesic tolerance in CCI model, co-administration with A3AR agonist; type: in vivo, mice
[26] = Aqueous solubility; type: physicochemical
[27] = % Unbound in plasma, mouse; type: in vitro ADME
[28] = biological target: hM1 muscarinic receptor (Homo sapiens (Human), UniProt P11229); test: Off-target binding, M1
Excerpt: as §2

[29] = biological target: h5HT7 (Homo sapiens (Human), UniProt P34969); test: Off-target binding, 5HT7
[30] = biological target: hH1 histamine receptor (Homo sapiens (Human), UniProt P35367); test: Off-target binding, H1
[31] = test system: 5 CYP isozymes (1A2, 2C9, 2C19, 2D6, 3A4); test: Inhibition of 5 CYP isozymes; type: in vitro ADME; details: read-out: Inhibition of 5 CYP isozymes: IC50
[32] = biological target: h5HT2B (Homo sapiens (Human), UniProt P41595); test: Off-target binding, 5HT2B; details: read-out: Ki at 5HT2B
[33] = % Unbound in plasma, rat; type: in vitro ADME
[34] = biological target: hA3AR (Homo sapiens (Human), UniProt P0DMS8); test: Radioligand binding at hA3AR, CHO cell membranes, [125I]I-AB-MECA
[35] = biological target: hM4 muscarinic receptor (Homo sapiens (Human), UniProt P08173); test: Off-target binding, M4
[36] = biological target: CYP 3A4 (Homo sapiens (Human), UniProt P08684); test: CYP inhibition, 3A4; type: in vitro ADME
Excerpt: as §1

[37] = biological target: 5HT2A; test: Off-target binding, 5HT2A
[38] = % Unbound in plasma, human; type: in vitro ADME
[39] = biological target: Alpha 2B adrenergic receptor (Homo sapiens (Human), UniProt P18089); test: Off-target binding, α2B; details: read-out: Ki at α2B
Excerpt: as §2

[40] = biological target: hM3 muscarinic receptor (Homo sapiens (Human), UniProt P20309); test: Off-target binding, M3
[41] = biological target: h5HT6 (Homo sapiens (Human), UniProt P50406); test: Off-target binding, 5HT6
[42] = simulated gastric fluid, read-out: Stability in simulated fluids (t1/2, min): Gastric
[43] = simulated intestinal fluid, read-out: Stability in simulated fluids (t1/2, min): Intestinal
[44] = mouse (m), inhibition of binding at 10 μM

Chain of hA1AR (P30542 whole entry): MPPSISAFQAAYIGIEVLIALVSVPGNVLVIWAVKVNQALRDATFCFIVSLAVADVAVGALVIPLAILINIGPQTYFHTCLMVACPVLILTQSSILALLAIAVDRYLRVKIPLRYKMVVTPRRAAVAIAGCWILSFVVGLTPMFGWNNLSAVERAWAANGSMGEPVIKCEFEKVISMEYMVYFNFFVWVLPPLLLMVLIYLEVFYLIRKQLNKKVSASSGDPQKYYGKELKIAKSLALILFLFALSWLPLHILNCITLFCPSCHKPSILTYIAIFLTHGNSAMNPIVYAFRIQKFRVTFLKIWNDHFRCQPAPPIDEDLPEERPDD
Chain of human DAT (Q01959 whole entry): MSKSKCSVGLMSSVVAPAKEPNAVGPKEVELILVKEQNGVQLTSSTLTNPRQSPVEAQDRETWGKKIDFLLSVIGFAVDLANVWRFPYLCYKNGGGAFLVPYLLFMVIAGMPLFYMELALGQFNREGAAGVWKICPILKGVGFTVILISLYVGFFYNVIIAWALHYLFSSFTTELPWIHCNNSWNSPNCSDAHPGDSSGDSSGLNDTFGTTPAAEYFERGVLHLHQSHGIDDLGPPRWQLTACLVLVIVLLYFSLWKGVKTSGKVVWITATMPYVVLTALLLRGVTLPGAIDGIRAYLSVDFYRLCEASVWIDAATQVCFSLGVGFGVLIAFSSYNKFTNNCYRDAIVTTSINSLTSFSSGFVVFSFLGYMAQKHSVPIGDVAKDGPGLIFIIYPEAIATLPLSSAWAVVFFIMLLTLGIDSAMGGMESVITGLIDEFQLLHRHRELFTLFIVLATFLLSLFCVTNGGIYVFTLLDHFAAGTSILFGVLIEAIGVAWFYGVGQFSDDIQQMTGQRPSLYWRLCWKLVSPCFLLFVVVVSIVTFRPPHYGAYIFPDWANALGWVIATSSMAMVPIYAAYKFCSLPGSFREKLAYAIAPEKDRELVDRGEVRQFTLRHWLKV
Chain of mA2AAR (Q60613 whole entry): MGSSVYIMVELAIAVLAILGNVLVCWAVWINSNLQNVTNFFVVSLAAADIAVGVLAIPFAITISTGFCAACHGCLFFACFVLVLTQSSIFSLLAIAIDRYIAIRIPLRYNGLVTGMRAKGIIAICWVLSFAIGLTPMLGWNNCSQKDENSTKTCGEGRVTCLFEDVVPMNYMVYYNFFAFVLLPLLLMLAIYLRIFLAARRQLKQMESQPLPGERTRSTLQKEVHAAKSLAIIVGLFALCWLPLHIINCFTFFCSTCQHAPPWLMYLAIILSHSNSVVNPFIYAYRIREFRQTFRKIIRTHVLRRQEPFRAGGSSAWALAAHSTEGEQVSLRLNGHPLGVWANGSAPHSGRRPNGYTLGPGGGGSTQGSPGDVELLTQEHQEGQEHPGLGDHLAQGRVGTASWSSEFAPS
Chain of Alpha 2C adrenergic receptor (P18825 whole entry): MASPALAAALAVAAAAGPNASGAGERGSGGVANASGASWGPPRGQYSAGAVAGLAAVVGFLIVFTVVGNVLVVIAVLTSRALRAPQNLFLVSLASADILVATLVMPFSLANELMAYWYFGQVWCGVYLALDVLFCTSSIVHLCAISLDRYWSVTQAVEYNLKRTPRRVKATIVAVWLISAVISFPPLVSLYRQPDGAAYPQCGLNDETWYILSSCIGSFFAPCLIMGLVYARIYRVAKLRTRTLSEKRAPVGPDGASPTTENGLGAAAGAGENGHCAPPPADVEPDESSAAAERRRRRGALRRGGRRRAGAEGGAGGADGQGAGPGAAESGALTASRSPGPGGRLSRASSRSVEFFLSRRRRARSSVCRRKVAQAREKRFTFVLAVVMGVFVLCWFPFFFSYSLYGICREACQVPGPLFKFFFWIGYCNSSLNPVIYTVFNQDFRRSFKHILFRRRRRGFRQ
Chain of SERT (P31645 whole entry, species assumed): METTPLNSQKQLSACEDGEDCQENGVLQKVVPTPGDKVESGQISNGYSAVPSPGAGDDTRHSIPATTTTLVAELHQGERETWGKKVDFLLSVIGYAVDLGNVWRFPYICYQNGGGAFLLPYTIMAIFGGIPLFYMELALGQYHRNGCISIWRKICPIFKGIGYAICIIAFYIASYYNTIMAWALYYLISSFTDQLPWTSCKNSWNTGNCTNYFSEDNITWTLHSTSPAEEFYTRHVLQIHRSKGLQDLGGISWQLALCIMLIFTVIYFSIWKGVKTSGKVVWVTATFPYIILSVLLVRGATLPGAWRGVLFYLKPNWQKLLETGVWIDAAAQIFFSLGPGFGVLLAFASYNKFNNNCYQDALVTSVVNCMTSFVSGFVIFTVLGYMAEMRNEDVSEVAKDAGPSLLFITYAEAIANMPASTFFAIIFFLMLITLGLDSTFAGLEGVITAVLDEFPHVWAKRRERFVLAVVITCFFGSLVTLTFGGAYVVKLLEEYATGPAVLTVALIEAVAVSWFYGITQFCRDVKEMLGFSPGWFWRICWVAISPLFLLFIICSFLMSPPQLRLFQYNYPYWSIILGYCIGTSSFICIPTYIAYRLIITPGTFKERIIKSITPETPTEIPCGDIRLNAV
Chain of r Sigma 2 (Q5U3Y7 whole entry): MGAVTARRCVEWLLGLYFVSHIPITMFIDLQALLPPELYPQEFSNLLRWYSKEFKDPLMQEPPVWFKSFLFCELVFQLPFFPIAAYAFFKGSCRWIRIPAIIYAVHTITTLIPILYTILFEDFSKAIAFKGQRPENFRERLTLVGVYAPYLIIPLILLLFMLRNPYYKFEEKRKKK
Chain of r Sigma 1 (Q9R0C9 whole entry): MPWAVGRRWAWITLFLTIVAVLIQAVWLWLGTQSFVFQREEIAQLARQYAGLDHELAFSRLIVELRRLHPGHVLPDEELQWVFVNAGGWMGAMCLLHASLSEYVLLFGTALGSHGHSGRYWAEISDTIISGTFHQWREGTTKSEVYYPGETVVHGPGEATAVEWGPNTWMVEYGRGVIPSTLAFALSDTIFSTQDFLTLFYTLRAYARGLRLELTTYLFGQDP
Chain of mA3AR (Q61618 whole entry): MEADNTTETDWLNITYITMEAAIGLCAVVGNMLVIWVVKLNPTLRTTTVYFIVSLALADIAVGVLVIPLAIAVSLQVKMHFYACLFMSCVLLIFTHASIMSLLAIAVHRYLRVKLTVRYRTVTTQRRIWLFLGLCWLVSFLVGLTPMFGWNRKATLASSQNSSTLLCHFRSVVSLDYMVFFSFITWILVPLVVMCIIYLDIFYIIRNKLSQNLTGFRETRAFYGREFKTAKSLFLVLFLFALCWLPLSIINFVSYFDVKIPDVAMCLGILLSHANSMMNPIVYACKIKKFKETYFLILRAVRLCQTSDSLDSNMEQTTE
Chain of hA2AAR (P29274 whole entry): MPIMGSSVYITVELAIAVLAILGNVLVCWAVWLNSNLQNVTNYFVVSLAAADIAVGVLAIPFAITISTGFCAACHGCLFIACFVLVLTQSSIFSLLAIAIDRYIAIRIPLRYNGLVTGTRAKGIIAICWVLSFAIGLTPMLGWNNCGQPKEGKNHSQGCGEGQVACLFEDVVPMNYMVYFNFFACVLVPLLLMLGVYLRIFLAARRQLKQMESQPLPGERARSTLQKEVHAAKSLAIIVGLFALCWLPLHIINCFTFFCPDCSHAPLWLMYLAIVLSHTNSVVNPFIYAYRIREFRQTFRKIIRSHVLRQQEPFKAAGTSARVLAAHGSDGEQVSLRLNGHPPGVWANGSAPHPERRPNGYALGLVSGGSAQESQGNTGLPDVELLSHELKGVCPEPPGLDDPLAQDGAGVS
Chain of Alpha 1B adrenergic receptor (P35368 whole entry): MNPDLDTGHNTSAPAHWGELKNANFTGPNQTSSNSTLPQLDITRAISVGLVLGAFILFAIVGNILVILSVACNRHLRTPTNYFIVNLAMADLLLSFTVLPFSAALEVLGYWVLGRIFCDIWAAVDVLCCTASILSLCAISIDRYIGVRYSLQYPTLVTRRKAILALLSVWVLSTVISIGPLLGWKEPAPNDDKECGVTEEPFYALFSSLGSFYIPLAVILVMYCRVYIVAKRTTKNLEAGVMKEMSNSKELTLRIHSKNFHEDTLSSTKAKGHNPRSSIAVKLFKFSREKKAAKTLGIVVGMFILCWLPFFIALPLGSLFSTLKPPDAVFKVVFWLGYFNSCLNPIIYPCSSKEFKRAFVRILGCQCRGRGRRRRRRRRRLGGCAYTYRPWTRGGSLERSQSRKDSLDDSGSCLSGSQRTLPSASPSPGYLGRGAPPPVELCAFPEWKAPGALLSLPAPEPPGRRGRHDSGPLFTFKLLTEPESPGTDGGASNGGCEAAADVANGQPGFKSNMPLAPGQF
Chain of mA1AR (Q60612 whole entry): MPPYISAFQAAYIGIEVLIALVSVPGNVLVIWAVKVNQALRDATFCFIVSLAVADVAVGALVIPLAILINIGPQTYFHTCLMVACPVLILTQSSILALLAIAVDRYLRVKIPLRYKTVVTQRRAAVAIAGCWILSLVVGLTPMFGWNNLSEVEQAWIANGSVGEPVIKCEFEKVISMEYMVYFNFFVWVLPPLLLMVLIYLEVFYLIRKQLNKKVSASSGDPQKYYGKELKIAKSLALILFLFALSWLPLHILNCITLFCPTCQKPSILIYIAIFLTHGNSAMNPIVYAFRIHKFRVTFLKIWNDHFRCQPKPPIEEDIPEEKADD
Chain of hM4 muscarinic receptor (P08173 whole entry): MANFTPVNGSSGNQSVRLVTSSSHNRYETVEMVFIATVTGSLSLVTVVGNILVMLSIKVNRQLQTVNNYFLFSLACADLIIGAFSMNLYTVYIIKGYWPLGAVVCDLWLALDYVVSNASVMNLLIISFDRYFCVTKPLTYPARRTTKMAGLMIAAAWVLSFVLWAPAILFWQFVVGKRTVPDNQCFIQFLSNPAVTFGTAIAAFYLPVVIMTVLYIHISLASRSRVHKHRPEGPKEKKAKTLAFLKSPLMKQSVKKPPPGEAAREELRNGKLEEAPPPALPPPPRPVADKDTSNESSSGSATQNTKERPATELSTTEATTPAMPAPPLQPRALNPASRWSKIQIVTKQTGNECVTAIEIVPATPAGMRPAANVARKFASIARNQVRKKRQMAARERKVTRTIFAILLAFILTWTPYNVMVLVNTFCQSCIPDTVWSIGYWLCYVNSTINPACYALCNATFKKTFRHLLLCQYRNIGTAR

## CNC(=O)[C@@]12C[C@@H]1[C@@H](n1cnc3c(NC)nc(C#Cc4cnccn4)nc31)[C@H](O)[C@@H]2O [Compound 7, (1S,2R,3S,4R,5S)-2,3-Dihydroxy-N-methyl-4-(6-(methylamino)-2-(pyrazin-2-ylethynyl)-9H-purin-9-yl)bicyclo[3.1.0]hexane-1-carboxamide]
[1]
  IC50: > 10 µM
[2]; [42]
  half-life: > 480 min
[2]; [43]
  half-life: > 480 min
[3]
  inhibition at 10 µM: 12%
[4]
  Off-target effects compared with MRS5698 and MRS5676: significantly fewer off-target effects
  Interactions at other receptors of the off-target panel: No interactions at other receptors
[5]; read-out: Ki at DAT
  Ki: 1.8 µM
[5]; read-out: Ki class at DAT
  Ki: 1 to 10 µM
[6]
  Ki: 6.8 µM
[7]
  half-life: 236 min
[8]; read-out: Ki at SERT
  Ki: > 10 µM
[8]; read-out: Ki class at SERT
  Ki: > 10 µM
[9]
  half-life: > 145 min
[10]
  inhibition at 10 µM: 25 ± 9%
[11]
  Ki: 7.9 µM
[12]
  inhibition at 10 µM: 37%
[13]
  Max. effect Emax (% ± SEM): 100 ± 0.0%
  Time of peak protection: 1 h
  Efficacy in reversing NP in vivo (of full reversal at peak effect): ~100%
[14]
  half-life: > 145 min
[15]
  Ki: 4.3 µM
[16]
  Ki: 0.068 ± 0.005 µM
[17]; read-out: Ki at α1B
  Ki: 9.4 µM
[17]; read-out: Ki class at α1B
  Ki: 1 to 10 µM

## CNC(=O)[C@@]12C[C@@H]1[C@@H](n1cnc3c(NC)nc(C#Cc4ccc(Cl)s4)nc31)[C@H](O)[C@@H]2O [Compound 32, (1S,2R,3S,4R,5S)-4-(2-((5-Chlorothiophen-2-yl)ethynyl)-6-(methylamino)-9H-purin-9-yl)-2,3-dihydroxy-N-methylbicyclo[3.1.0]hexane-1-carboxamide]
[18]; iv, i.v. 1 mg/kg
  half-life: 0.7 ± 0.3 h
[18]; po, p.o. 1 mg/kg
  half-life: 3.6 ± 0.4 h
[18]; po, p.o. 1 mg/kg, read-out: Cmax nM
  Cmax: 63 ± 19 nM
[18]; po, p.o. 1 mg/kg, read-out: Cmax ng/ml
  Cmax: 29 ± 8.6 ng/mL
[18]; po, p.o. 3 mg/kg
  half-life: 5.3 ± 0.8 h
[18]; po, p.o. 3 mg/kg, read-out: Cmax nM
  Cmax: 101 ± 53 nM
[18]; po, p.o. 3 mg/kg, read-out: Cmax ng/ml
  Cmax: 47 ± 24 ng/mL
[18]; po, p.o. 10 mg/kg
  half-life: 7.8 ± 2 h
[18]; po, p.o. 10 mg/kg, read-out: Cmax nM
  Cmax: 711 ± 125 nM
[18]; po, p.o. 10 mg/kg, read-out: Cmax ng/ml
  Cmax: 326 ± 57 ng/mL
[1]
  IC50: > 10 µM
[2]; [42]
  half-life: > 480 min
[2]; [43]
  half-life: > 480 min
[19]
  inhibition at 10 µM: 60 to 70%
[3]
  inhibition at 10 µM: 7%
[4]
  Off-target effects compared with MRS5698 and MRS5676: significantly fewer off-target effects
  Interactions at other receptors of the off-target panel: No interactions
[5]; 10 μM
  Increase of the level of radioligand ([3H]WIN35428) binding at the human DAT: 556%
[5]; compound at 10 μM
  Enhancement of radioligand binding at the dopamine transporter: ~5 ×
[20]; at 10 μM
  inhibition at 10 µM: 60 to 70%
[20]; off-target binding, read-out: Ki at Sigma-2 (σ2)
  Ki: 0.63 µM
[7]
  half-life: 230 min
[21]
  Acute liver toxicity: no acute liver toxicity
[22]; at 10 μM
  inhibition at 10 µM: 60 to 70%
[22]; off-target binding
  Ki: 1.4 µM
[9]
  half-life: 143 min
[23]; read-out: A1AR % inhibition, mouse data (m)
  inhibition at 10 µM: 38%
[10]
  inhibition at 10 µM: 24%
[12]
  inhibition at 10 µM: 6%
[24]
  GSH and GSSG levels in liver: no alteration
  Liver histology: remained normal
[13]
  Effect at 3 h (% ± SEM): 83 ± 11%
  Max. effect Emax (% ± SEM): 93 ± 7%
  Time of peak protection: 0.5 to 3 h
  Efficacy in reversing NP in vivo (of full reversal at peak effect): ~100%
[14]
  half-life: 128 min
[25]; […]
  Analgesic effect of the A3AR agonist dose per se: no analgesic effects per se
[25]; mouse, in vivo
  Effect on opioid-induced hypersensitivity and analgesic tolerance: block opioid-induced hypersensitivity and analgesic tolerance
[26]
  Aq. Solubility (pH 7.4, μg/mL): 16.8 ± 1.1 μg/mL
[27]
  % Unbound in plasma: Mouse: 6.40%

## (1S,2R,3S,4R,5S)-4-(2-((Ferrocen-yl)ethynyl)-6-(methylamino)-9H-purin-9-yl)-2,3-dihydroxy-N-methylbicyclo[3.1.0]hexane-1-carboxamide [Compound 37]
[28]
  Ki: < 10 µM
[29]
  Ki: < 10 µM
[30]
  Ki: < 10 µM
[31]
  IC50: > 9 µM
[2]; simulated gastric fluid
  Stability in simulated fluids (t1/2, min): Gastric: 46.5 min
[2]; simulated intestinal fluid
  Stability in simulated fluids (t1/2, min): Intestinal: 174 min
[3]; [44]
  A2AAR % inhibition, mouse data (m): 4% ± 2%
[4]
  Off-target effects compared with MRS5698 and MRS5676: significantly fewer off-target effects
  Interactions at other receptors of the off-target panel: No significant interactions
[6]
  Ki: < 10 µM
[32]
  Ki: < 10 µM
[33]
  % Unbound in plasma: Rat: 6.32%
[34]
  Ki: 0.00268 ± 0.00044 µM
[7]
  Stability in liver microsomes (t1/2, min): Human: 3.66 min
[35]
  Ki: < 10 µM
[36]
  IC50: 9.4 µM
[37]
  Ki: < 10 µM
[9]
  Stability in liver microsomes (t1/2, min): Mouse: 1.98 min
[23]; [44]
  A1AR % inhibition, mouse data (m): 45% ± 2%
[12]; inhibition of binding at 10 μM
  hA1AR % inhibition: 25 ± 2%
[13]
  Effect at 3 h (% ± SEM): 78 ± 3%
  Max. effect Emax (% ± SEM): 94 ± 6%
  Time of peak protection: 0.5 to 3 h
  Efficacy in reversing NP in vivo (of full reversal at peak effect): ~100%
[14]
  Stability in liver microsomes (t1/2, min): Rat: 6.64 min
[38]
  % Unbound in plasma: Human: 7.00%
[39]
  Ki: < 10 µM
[16]
  Ki: 0.00546 ± 0.00067 µM
[26]
  Aq. Solubility (pH 7.4, μg/mL): 14.5 ± 1.0 μg/mL
[40]
  Ki: < 10 µM
[27]
  % Unbound in plasma: Mouse: 4.85%
[41]
  Ki: < 10 µM
